The results in this text go back to paper PMC10043345, “Discovery of BAR502, as potent steroidal antagonist of leukemia inhibitory factor receptor for the treatment of pancreatic adenocarcinoma” (Frontiers in Oncology, 2023).

Each structure is given as a SMILES string.

As a reminder, the EC50 is the concentration that produces a half-maximal response.

Assay [1] has as its system MIA PaCa-2 cells. The experiment in a line: MTS cell proliferation assay. Format: cell-based, human. On the procedure:
The cell viability assay was done using the CellTiter 96 Aqueous One Solution Cell Proliferation Assay (Promega, Milano, Italy), a colorimetric method for accessing the number of viable cells in proliferation as described previously ([13]). MIA-PaCa 2 cells were seeded in DMEM complete medium at 36 *10^3 cells/100 uL well into 96-well tissue culture plate. After 24 h, cells were serum starved for 24 h and then were primed with the LIFR major ligand, LIF (10 ng/ml) alone or in combination with BAR502 (5,10 and 20 μM) or only with vehicle. In another experimental setting, MIA-PaCa 2 cells were triggered with PDL103 (10 μM) alone, LIF (10 ng/ml) alone or plus PDL103 or BAR502 (10 μM) or both. In a different setting cell were exposed to an antagonist of the Farnesoid X receptor (FXR), 3-(naphthalen-2-yl)-5-(piperidin-4-yl)-1,2,4-oxadiazole (GP7) (10 µM) ([54]), LIF (10 ng/ml) alone or in combination with GP7 or BAR502 or both. Then cell proliferation assessed as mentioned above. Absorbance was measured using a 96 well reader spectrophotometer (490 nm). In these experiments each experimental setting was replicated ten folds. For analysis the background readings with the medium alone, were subtracted from the samples read-outs.
In general terms: Tetrazolium assays rely on reduction of a dye to a coloured formazan, in cell work by metabolically active cells.

The target in assay [2] is T1, FXR (Homo sapiens, UniProt Q96RI1).
T1 construct: expressed in transfected cells; host or cells: HepG2
T1 sequence (Q96RI1 1-486): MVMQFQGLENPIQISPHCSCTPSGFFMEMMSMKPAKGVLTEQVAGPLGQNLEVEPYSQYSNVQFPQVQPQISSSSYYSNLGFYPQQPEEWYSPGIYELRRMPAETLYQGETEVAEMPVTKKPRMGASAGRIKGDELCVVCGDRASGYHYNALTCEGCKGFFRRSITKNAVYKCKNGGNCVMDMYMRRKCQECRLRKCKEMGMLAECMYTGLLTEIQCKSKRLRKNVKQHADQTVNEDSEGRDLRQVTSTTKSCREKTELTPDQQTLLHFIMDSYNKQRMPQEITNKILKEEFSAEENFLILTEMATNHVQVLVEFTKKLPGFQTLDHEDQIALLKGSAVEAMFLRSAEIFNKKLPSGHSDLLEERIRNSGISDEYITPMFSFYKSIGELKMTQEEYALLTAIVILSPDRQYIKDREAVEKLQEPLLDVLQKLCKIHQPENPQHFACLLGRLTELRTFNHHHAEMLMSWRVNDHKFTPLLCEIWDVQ
T1 sequence (P19793 1-462 partner): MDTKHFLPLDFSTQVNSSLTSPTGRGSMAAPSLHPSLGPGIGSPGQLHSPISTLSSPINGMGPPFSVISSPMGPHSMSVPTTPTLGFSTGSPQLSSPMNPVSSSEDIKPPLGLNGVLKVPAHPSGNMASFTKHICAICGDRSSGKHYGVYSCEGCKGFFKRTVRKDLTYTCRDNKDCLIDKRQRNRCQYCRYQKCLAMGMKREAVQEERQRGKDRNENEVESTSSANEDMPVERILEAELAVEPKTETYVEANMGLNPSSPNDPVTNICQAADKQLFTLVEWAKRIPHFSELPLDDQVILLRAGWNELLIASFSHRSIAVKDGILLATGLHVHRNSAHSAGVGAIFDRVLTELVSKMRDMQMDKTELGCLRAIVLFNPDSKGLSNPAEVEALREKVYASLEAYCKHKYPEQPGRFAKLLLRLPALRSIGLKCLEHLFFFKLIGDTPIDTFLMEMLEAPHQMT
The experiment in a line: FXR transactivation (FXR/RXR, hsp27 IR1-luciferase) in HepG2 cells. It is filed as cell-based. On the procedure:
On day 0, HepG2 were seeded at 7.5 × 10^4 cells/well in a 24-well plate and maintained at 37°C and 5% CO2 in E-MEM supplemented with 10% FBS, 1% glutamine, and 1% penicillin/streptomycin. On day 1, cells were transiently transfected with the reporter plasmid pGL4.47[luc2P/SIE/Hygro] (200 ng) (CAT#: E4041 Promega, Madison, WI, USA), a vector encoding the hLIFR (CAT# RC226327) (100 ng) and CD130 (IL6ST) (100 ng) (CAT#: RC215123, OriGene Technologies, Inc. Rockville, MD, USA), and finally a vector encoding the human RENILLA luciferase gene (pGL4.70) (100 ng) (Promega, Madison, WI, USA). On day 2, cells were exposed to the cytokine LIF (10 ng/mL) alone or in combination with BAR502 (from 0.1 to 20 μM). […] For FXR mediated transactivation, HepG2 cells were plated at 7.5 × 10^4 cells/well in a 24 well plate. Cells were transfected with 200 ng of the reporter vector p(hsp27)-TK-LUC containing a FXR response element (IR1) cloned from the promoter of heat shock protein 27 (hsp27), 100 ng of pSG5-FXR, 100 ng of pSG5-RXR, and 100 ng of pGL4.70 (Promega), a vector encoding the human Renilla gene. To perform STAT3 transactivation, HepG2 were seeded at 7.5× 10^4 cells/well in a 24-well plate. On the day-1, cells were transiently transfected with 200 ng of the reporter plasmid pGL4.47[luc2P/SIE/Hygro] […] Luminescence was measured using a Glomax 20/20 luminometer (Promega, Madison, WI, USA). […]

Take `CC[C@H]1[C@@H](O)C2C3CC[C@H]([C@H](C)CCO)[C@@]3(C)CCC2[C@@]2(C)CC[C@@H](O)C[C@@H]12` (stereo partly shown) [BAR502]: the “effect on LIF-induced proliferation (MTS)” value in assay [1] (LIF 10 ng/mL + BAR502 5, 10, 20 µM, 24 h, serum free) is given as “reversed the LIF-proliferative effect in a concentration-dependent manner”. In addition, in assay [2] (transactivation, agonism, read-out: FXR EC50 Transact), the EC50 is 3 ± 1 µM.

For the molecule `OCc1ccc(-c2ccc(OCc3cc(-c4c(Cl)cccc4Cl)no3)cc2)cc1` [PDL103, (4’-((3-(2,6-dichlorophenyl)isoxazol-5-yl)methoxy)-[1,1’-biphenyl]-4-yl)methanol], the “effect of PDL103 co-treatment on BAR502 action on LIF/LIFR induced proliferation and EMT” value in assay [1] (PDL103 10 μM + BAR502 10 μM + LIF 10 ng/ml) is “failed to reverse the effect of BAR502”. Also, in assay [2] (read-out: HepG2 FXR/RXR Antagonism IC50), the IC50 is 10 µM.
